Here are results for 14 molecules from PMC9329436, “Optimization of the 4-anilinoquin(az)oline scaffold as epidermal growth factor receptor (EGFR) inhibitors for chordoma utilizing a toxicology profiling assay platform” (Scientific Reports, 2022).

One data set relates to HL60 cells. Briefly: AsedaSciences SYSTEMETRIC Cell Health Screen (flow cytometry toxicity profiling). The note with it: HL60, 4 h, 5 nM–100 µM, probability 0–1, n = 2. The text has this: To prioritize further optimization, in addition to cellular potency, we utilized the AsedaSciences® […]® Cell Health Screen. This live cell flow cytometry (FC) screen was developed to assess human safety risk for candidate pharmaceutical small molecules at the early hit-to-lead stage of development. The screen works by estimating the risk using a supervised machine learning (ML) classifier to assess a multiparametric cellular stress phenotype, produced by the test compound, relative to a training set of known compounds (Table S1). This screen has been designed for early pipeline risk estimation regardless of pharmaceutical class/disease type, so it uses HL60 as the reporter cell line.
The ML classifier was trained with 300 historically known compounds (on market or withdrawn drugs, research compounds, etc.), which were divided into two outcome classes based upon literature, clinical trials, and market histories where applicable. This external curation informed an outcome of “high-risk” or “low-risk”. All 300 compounds were also processed through the automated FC screen, populating each of the two classes with frequency distributions of empirical cell-based phenotypes.
To estimate human safety risk for an unknown compound, the ML classifier assesses the similarity of the test compound’s cell-based phenotype to the distributions of phenotypes in the two outcome classes. […] Phenotypes are derived from twelve FC detection parameters, including light scatter and a series of fluorescent physiological reporter dyes, that track cell stress-related endpoints.
To produce the Cell Health Index, the ML classifier uses all twelve FC parameters simultaneously in a multidimensional logistic regression model, so the CHI contains the most predictive power. In addition to the Cell Health Index, Table 4 also reports probability scores for eight cell stress-related endpoints. These scores are produced individually by passing information to the ML classifier relating to parameters that inform that endpoint. For example, to produce the cell morphology (CM) score, the ML classifier only uses the FC detection parameters for forward scatter (informing change in cell diameter) and side scatter (informing change in optical granularity of the cell) to inform the model. Together, these eight endpoints provide a “biological fingerprint”, allowing assessment of the degree to which SAR series members behave differently across endpoints.
In a 384-well platform, HL60 cells were exposed to a 10-step, 3 × dilution series of each test compound (5 nM–100 µM) for 4 h at 37 °C with 5% CO2. Each dilution series was screened in duplicate, occupying a total of 20 wells, allowing 16 test compounds to be assayed per plate. Each row contained one positive and one negative control well, for a total of 16 replicate positive/negative control pairs on each assay plate. Compound formatting, cell deposition, and dye application were performed robotically so that final assay conditions comprised 100,000 cells in a 40 µL volume. After the 4 h compound exposure, cells were immediately stained with a panel of fluorescent dyes that report physiological signatures of both mitochondrial dysfunction and gross cell stress. Fluorescence and forward/side-scatter data were collected using automated FC with no gating. FC data are processed by an automated algorithm for producing quality control measures and ML classification of compound phenotypes. • 2. HL60 cell culture production
HL60 cells were produced as suspension cultures in glass 850 cm^2 roller bottles with vented caps, at 1 RPM, 5% CO2, and 37 °C. […] Culture density was maintained at or below 1 × 10^6 cells/mL.
With `CC1(C)NC(=O)N(c2ccc([N+](=O)[O-])c(C(F)(F)F)c2)C1=O` [Nilutamide, reference compound], the “CC: Cell Cycle score” value is 0.68, the “CM: Cell morphology score” value is 0.040, the “CMI: Cell membrane integrity score” value is recorded as 0.060 and the “GSH: Glutathione score” value is given as 0.040. Also, the “MMP: Mitochondrial membrane depolarization score” value came out at 0.42, the “NMI1: Nuclear membrane integrity 1 score” value came to 0.21, the “NMI2: Nuclear membrane integrity 2 score” value was determined as 0.52 and the “ROS: Reactive superoxide species score” value came out at 0.090.

As to `O=C1CC2(CCCC2)CC(=O)N1CCCCN1CCN(c2ncccn2)CC1` [Buspirone, reference compound], the “CC: Cell Cycle score” value turned out to be 0.11, the “CM: Cell morphology score” value was determined as 0.060, the “CMI: Cell membrane integrity score” value came to 0.040 and the “GSH: Glutathione score” value stood at 0.080. Moreover, the “MMP: Mitochondrial membrane depolarization score” value came out at 0.020, the “NMI1: Nuclear membrane integrity 1 score” value is given as 0.070, the “NMI2: Nuclear membrane integrity 2 score” value stood at 0.040 and the “ROS: Reactive superoxide species score” value came out at 0.05.

In the case of `COc1ccc2cc3[n+](cc2c1OC)CCc1cc2c(cc1-3)OCO2` [Berberine, reference compound], the “CC: Cell Cycle score” value is recorded as 0.99, the “CM: Cell morphology score” value is on record as 0.99, the “CMI: Cell membrane integrity score” value amounted to 0.050 and the “GSH: Glutathione score” value was 0.93. Moreover, the “MMP: Mitochondrial membrane depolarization score” value came out at 1.00, the “NMI1: Nuclear membrane integrity 1 score” value is listed as 0.99, the “NMI2: Nuclear membrane integrity 2 score” value stood at 0.97 and the “ROS: Reactive superoxide species score” value turned out to be 1.00.

Regarding `CS(=O)(=O)CCNCc1ccc(-c2ccc3ncnc(Nc4ccc(OCc5cccc(F)c5)c(Cl)c4)c3c2)o1` [Lapatinib, reference compound], the “CC: Cell Cycle score” value is recorded as 0.93, the “CM: Cell morphology score” value is reported as 1.00, the “CMI: Cell membrane integrity score” value turned out to be 1.00 and the “GSH: Glutathione score” value came to 0.96. Further, the “MMP: Mitochondrial membrane depolarization score” value amounted to 1.00, the “NMI1: Nuclear membrane integrity 1 score” value turned out to be 0.97, the “NMI2: Nuclear membrane integrity 2 score” value amounted to 0.92 and the “ROS: Reactive superoxide species score” value was 0.90.

In the case of `O=C(O)CCc1nc(-c2ccccc2)c(-c2ccccc2)o1` [Oxaprozin, reference compound], the “CC: Cell Cycle score” value came to 0.060, the “CM: Cell morphology score” value was found to be 0.00, the “CMI: Cell membrane integrity score” value turned out to be 0.090 and the “GSH: Glutathione score” value worked out at 0.030. Moreover, the “MMP: Mitochondrial membrane depolarization score” value is recorded as 0.000, the “NMI1: Nuclear membrane integrity 1 score” value turned out to be 0.040, the “NMI2: Nuclear membrane integrity 2 score” value stood at 0.12 and the “ROS: Reactive superoxide species score” value is recorded as 0.16.

On to `CC(c1cc2ccccc2s1)N(O)C(N)=O` (stereo not drawn) [Zileuton, reference compound], for which the “CC: Cell Cycle score” value is 0.11, the “CM: Cell morphology score” value worked out at 0.020, the “CMI: Cell membrane integrity score” value was determined as 0.010 and the “GSH: Glutathione score” value stood at 0.020. Moreover, the “MMP: Mitochondrial membrane depolarization score” value was determined as 0.060, the “NMI1: Nuclear membrane integrity 1 score” value is 0.17, the “NMI2: Nuclear membrane integrity 2 score” value is 0.080 and the “ROS: Reactive superoxide species score” value was 0.070.

On to `Cc1cn([C@@H]2C[C@@H](O)[C@H](CO)O2)c(=O)[nH]c1=O` [Telbivudine, reference compound], for which the “CC: Cell Cycle score” value is reported as 0.020, the “CM: Cell morphology score” value turned out to be 0.010, the “CMI: Cell membrane integrity score” value is 0.040 and the “GSH: Glutathione score” value was determined as 0.070. Moreover, the “MMP: Mitochondrial membrane depolarization score” value was 0.010, the “NMI1: Nuclear membrane integrity 1 score” value was determined as 0.11, the “NMI2: Nuclear membrane integrity 2 score” value turned out to be 0.050 and the “ROS: Reactive superoxide species score” value was 0.030.

As to `CCc1nn(CCCN2CCN(c3cccc(Cl)c3)CC2)c(=O)n1CCOc1ccccc1` [Nefazodone, reference compound], the “CC: Cell Cycle score” value came out at 0.97, the “CM: Cell morphology score” value was 0.97, the “CMI: Cell membrane integrity score” value turned out to be 1.00 and the “GSH: Glutathione score” value is listed as 0.99. The “MMP: Mitochondrial membrane depolarization score” value is recorded as 1.00, the “NMI1: Nuclear membrane integrity 1 score” value was 0.73, the “NMI2: Nuclear membrane integrity 2 score” value was found to be 0.87 and the “ROS: Reactive superoxide species score” value was 1.00.

Consider `CC(C)(C)c1ccc(C(O)CCCN2CCC(C(O)(c3ccccc3)c3ccccc3)CC2)cc1` (stereo not drawn) [Terfenadine, reference compound], for which the “CC: Cell Cycle score” value amounted to 0.98, the “CM: Cell morphology score” value is on record as 1.00, the “CMI: Cell membrane integrity score” value is recorded as 1.00 and the “GSH: Glutathione score” value is 1.00. The “MMP: Mitochondrial membrane depolarization score” value is listed as 1.00 and the “ROS: Reactive superoxide species score” value turned out to be 1.00.

For `COc1cc2ncnc(Nc3ccc(F)c(Cl)c3)c2cc1OCCCN1CCOCC1` [Gefitinib, reference compound], the “CC: Cell Cycle score” value is 0.93, the “CM: Cell morphology score” value turned out to be 1.00, the “CMI: Cell membrane integrity score” value came to 0.99 and the “GSH: Glutathione score” value is on record as 0.97. The “MMP: Mitochondrial membrane depolarization score” value turned out to be 0.99, the “NMI1: Nuclear membrane integrity 1 score” value was found to be 0.61, the “NMI2: Nuclear membrane integrity 2 score” value amounted to 0.94 and the “ROS: Reactive superoxide species score” value is listed as 0.93.

In the case of `CC(C)NCC(O)COc1cccc2ccccc12` (stereo not drawn) [Propranolol, reference compound], the “CC: Cell Cycle score” value is reported as 0.24, the “CM: Cell morphology score” value worked out at 0.060, the “CMI: Cell membrane integrity score” value turned out to be 0.20 and the “GSH: Glutathione score” value came out at 0.11. Moreover, the “MMP: Mitochondrial membrane depolarization score” value came to 0.010, the “NMI1: Nuclear membrane integrity 1 score” value amounted to 0.69, the “NMI2: Nuclear membrane integrity 2 score” value was determined as 0.23 and the “ROS: Reactive superoxide species score” value is on record as 0.18.

On to `Cc1ccc(=O)n(-c2ccccc2)c1` [Pirfenidone, reference compound], for which the “CC: Cell Cycle score” value was 0.060, the “CM: Cell morphology score” value stood at 0.00, the “CMI: Cell membrane integrity score” value turned out to be 0.090 and the “GSH: Glutathione score” value was 0.040. Besides, the “MMP: Mitochondrial membrane depolarization score” value was 0.010, the “NMI1: Nuclear membrane integrity 1 score” value stood at 0.040, the “NMI2: Nuclear membrane integrity 2 score” value is recorded as 0.030 and the “ROS: Reactive superoxide species score” value amounted to 0.020.

`CN(CCOc1ccc(CC2SC(=O)NC2=O)cc1)c1ccccn1` (stereo not drawn) [Rosiglitazone, reference compound]: the “CC: Cell Cycle score” value turned out to be 0.27, the “CM: Cell morphology score” value is on record as 0.49, the “CMI: Cell membrane integrity score” value is recorded as 0.23 and the “GSH: Glutathione score” value is on record as 0.53. Besides, the “MMP: Mitochondrial membrane depolarization score” value was 0.050, the “NMI1: Nuclear membrane integrity 1 score” value is on record as 0.23, the “NMI2: Nuclear membrane integrity 2 score” value is 0.27 and the “ROS: Reactive superoxide species score” value stood at 0.070.

With `Cc1ccc(-c2cc(C(F)(F)F)nn2-c2ccc(S(N)(=O)=O)cc2)cc1` [Celecoxib, reference compound], the “CC: Cell Cycle score” value is given as 0.61, the “CM: Cell morphology score” value came to 0.56, the “CMI: Cell membrane integrity score” value amounted to 0.94 and the “GSH: Glutathione score” value came out at 0.36. In addition, the “MMP: Mitochondrial membrane depolarization score” value worked out at 0.51, the “NMI1: Nuclear membrane integrity 1 score” value is 0.53, the “NMI2: Nuclear membrane integrity 2 score” value is 0.51 and the “ROS: Reactive superoxide species score” value turned out to be 0.96.

Still in this data set, the particulars now being: HL60, 4 h, 5 nM–100 µM, probability (0–1) of high-risk class, n = 2.
As for `CC1(C)NC(=O)N(c2ccc([N+](=O)[O-])c(C(F)(F)F)c2)C1=O` [Nilutamide, reference compound], the “CHI: Cell Health Index” value was 0.34.

For `O=C1CC2(CCCC2)CC(=O)N1CCCCN1CCN(c2ncccn2)CC1` [Buspirone, reference compound], the “CHI: Cell Health Index” value is recorded as 0.22.

As to `COc1ccc2cc3[n+](cc2c1OC)CCc1cc2c(cc1-3)OCO2` [Berberine, reference compound], the “CHI: Cell Health Index” value is given as 0.82.

Consider `CS(=O)(=O)CCNCc1ccc(-c2ccc3ncnc(Nc4ccc(OCc5cccc(F)c5)c(Cl)c4)c3c2)o1` [Lapatinib, reference compound], for which the “CHI: Cell Health Index” value came out at 0.89.

In the case of `CC(c1cc2ccccc2s1)N(O)C(N)=O` (stereo not drawn) [Zileuton, reference compound], the “CHI: Cell Health Index” value came out at 0.19.

With `CCc1nn(CCCN2CCN(c3cccc(Cl)c3)CC2)c(=O)n1CCOc1ccccc1` [Nefazodone, reference compound], the “CHI: Cell Health Index” value is listed as 0.78.

On to `COc1cc2ncnc(Nc3ccc(F)c(Cl)c3)c2cc1OCCCN1CCOCC1` [Gefitinib, reference compound], for which the “CHI: Cell Health Index” value is reported as 0.80.

With `Cc1ccc(=O)n(-c2ccccc2)c1` [Pirfenidone, reference compound], the “CHI: Cell Health Index” value came to 0.17.

Take `CN(CCOc1ccc(CC2SC(=O)NC2=O)cc1)c1ccccn1` (stereo not drawn) [Rosiglitazone, reference compound]: the “CHI: Cell Health Index” value was 0.37.

`Cc1ccc(-c2cc(C(F)(F)F)nn2-c2ccc(S(N)(=O)=O)cc2)cc1` [Celecoxib, reference compound]: the “CHI: Cell Health Index” value is given as 0.54.
